Results as given in publication PMC7583591 (Computational Biology and Chemistry, 2020).

Target: SARS-CoV-2 M^pro (Severe acute respiratory syndrome coronavirus 2, UniProt P0DTD1)
Assay: biochemical
Conditions: for inhibition at 50 µM: read-out: % Protease inhibition at 50 μM ligand concentration

SMILES | IC50 | inhibition at 50 µM | % Protease inhibition at 50 μM ligand concentration (50 μM)
Cc1cc(O)c2c(=O)c3c(O)cc(O)c4c5c(O)cc(O)c6c(=O)c7c(O)cc(C)c8c1c2c(c34)c(c78)c65 [Hypericin] | 63.6 ± 5.7 µM | 42.8 ± 8.2% | –
C[S@@+]([O-])CCCCN=C=S [L-sulforaphane] | > 128 µM | 8.4 ± 2.7% | –
Oc1ccc(/C=C/c2cc(O)cc(O)c2)cc1 [Resveratrol] | > 128 µM | 1.8 ± 0.9% | –
O=C(Nc1ccccc1-c1cn2c(CN3CCNCC3)csc2n1)c1cnc2ccccc2n1 [SRT1720] | – | – | 9.3 ± 2.2%
